# Test results from patent publication US9821072B2, “Activated neurotensin molecules and the uses thereof” (priority 2014, dated 2017).
# Legend:
# [1] = molecular target: T1, human neurotensin receptor type 1 (hNTR-1) (Homo sapiens, UniProt P30989); test: Competition binding assay with [3H]-neurotensin on human NTR-1 membranes (CHO cells); settings: read-out: NTR-1 binding affinity Ki, Human NTR-1
# T1 construct: purchased PerkinElmer; host or cells: CHO cells stably expressing human NTR-1 (membrane homogenates)
# [2] = molecular target: T2, rat neurotensin receptor type 1 (rNTR-1) (Rattus norvegicus, UniProt P20789); test: Competition binding assay with [3H]-neurotensin on rat NTR-1 membranes (HEK293 cells); settings: read-out: NTR-1 binding affinity Ki, Rat NTR-1
# T2 construct: host or cells: HEK293 cells (membrane homogenates)
# [3] = tested on: Swiss (CD-1) mice; test: Hypothermic response (rectal body temperature) after i.v. bolus in Swiss (CD-1) mice; assay type: in vivo, mouse
# [4] = tested on: BBB (brain); design: species or system C57Bl/6 mice; settings: mouse, in vivo
# Method: (§1) Transport kinetics at the BBB and blood-retina barrier (BRB) of the conjugates of the invention was assessed using an in situ brain perfusion technique in adult male C57Bl/6 mice. Radiolabeled activated NT compounds were obtained either by coupling [3H]Tyr3-NT with the AG or by coupling a tritiated AG to NT molecules. NT was radiolabeled by catalytic dehalogenation of iodoTyr3-NT using tritium gas while AG was radiolabeled by coupling a tritiated propionyl succinimide ester to its N-terminus. The specific radioactivity (SRA) was typically in the range of 50 Ci/mmol. The total quantity of radioactivity prepared for each synthesis was generally between 100 and 1000 μCi.
# (§2) The in situ brain perfusion technique enables total control of the composition of the artificial perfusate in order to maintain the cells and vascularization of the brain under normal physiological and anatomical conditions within the animal, without the disrupting factor of systemic distribution. […]
# (§3) In situ brain perfusion of the radiolabeled compounds of the invention was performed during 120 s with a perfusate flow rate of 2 mL/min. The initial transport was expressed as the transfer coefficient Kin (relationship between distribution volume of the test compound, corrected for the vascular volume, and cerebral perfusion time).
# [5] = tested on: blood-retina barrier (BRB), eye; design: species or system C57Bl/6 mice; settings: mouse, in vivo
# Method: as §1, §2, §3
# [6] = In vitro blood stability in freshly collected mouse blood (LC-MS/MS); assay type: in vitro ADME, Swiss (CD-1) mouse; settings: whole blood, 2 μM, 37° C.
# [7] = tested on: Swiss (CD-1) mice; test: Hypothermic response upon four daily i.v. administrations in Swiss (CD-1) mice; assay type: in vivo, mouse; settings: 4 mg/kg eq. NT daily i.v.
# Method: In order to determine the hypothermic responsiveness of mice upon repeated administrations of activated NT of the invention, Swiss (CD-1) mice were challenged to four daily intravenous (bolus) administrations of compound XIV at 4 mg/kg eq. NT. Rectal body temperature was monitored each day during 3 hours post-injection.
# T2 sequence (P20789 whole entry): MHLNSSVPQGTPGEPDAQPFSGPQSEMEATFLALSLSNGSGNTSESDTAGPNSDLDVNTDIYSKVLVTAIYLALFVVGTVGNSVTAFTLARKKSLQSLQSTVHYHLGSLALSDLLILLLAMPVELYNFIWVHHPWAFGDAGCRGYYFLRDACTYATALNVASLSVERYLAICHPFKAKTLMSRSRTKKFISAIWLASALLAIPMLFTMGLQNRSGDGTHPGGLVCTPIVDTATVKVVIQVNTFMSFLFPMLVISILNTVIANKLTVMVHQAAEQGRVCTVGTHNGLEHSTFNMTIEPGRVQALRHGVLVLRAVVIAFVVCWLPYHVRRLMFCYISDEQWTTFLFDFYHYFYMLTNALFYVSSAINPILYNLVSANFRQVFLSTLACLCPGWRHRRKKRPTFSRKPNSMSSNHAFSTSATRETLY
# T1 sequence (P30989 whole entry): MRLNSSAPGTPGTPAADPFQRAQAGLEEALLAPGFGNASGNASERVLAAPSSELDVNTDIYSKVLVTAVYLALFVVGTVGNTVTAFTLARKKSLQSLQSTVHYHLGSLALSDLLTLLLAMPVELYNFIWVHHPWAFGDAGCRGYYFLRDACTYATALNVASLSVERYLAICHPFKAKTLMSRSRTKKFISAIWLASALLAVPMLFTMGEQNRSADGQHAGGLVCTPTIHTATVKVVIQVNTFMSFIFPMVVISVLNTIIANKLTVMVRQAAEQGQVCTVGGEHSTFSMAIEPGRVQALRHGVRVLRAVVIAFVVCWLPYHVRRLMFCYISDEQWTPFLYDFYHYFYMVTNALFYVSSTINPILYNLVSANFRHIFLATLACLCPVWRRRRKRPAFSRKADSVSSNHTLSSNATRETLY
compound,measurement,setting,value
"CCC(=O)N[C@@H]1CSSC[C@@H](C(=O)NCCOCCOCCOCCOCCOCCOCCC(=O)N[C@@H](CCCNC(=N)N)C(=O)N[C@@H](CCCNC(=N)N)C(=O)N2CCC[C@H]2C(=O)N[C@@H](Cc2ccc(O)cc2)C(=O)N[C@H](C(=O)N[C@@H](CC(C)C)C(=O)O)[C@@H](C)CC)NC(=O)CN(C)C(=O)[C@H](CCCNC(=N)N)NC(=O)[C@H](CC(C)C)NC(=O)[C@H](CCCNC(=N)N)NC(=O)[C@@H]2CCCCN2C(=O)[C@H](CCSC)NC1=O [Compound XIV, Pr-cMPipRLRSarC-PEG6-RRPYIL-OH]",Ki,[1],0.22 ± 0.06 nM
same,Ki,[2],1.06 ± 0.47 nM
same,Maximal decrease in body temperature,"[3]; 10 mg/kg eq. NT i.v. bolus, 60 min post-injection",−6.7 °C
same,hypothermic response at 20 mg/kg eq. NT versus 10 mg/kg eq. NT,"[3]; 20 mg/kg eq. NT, mice",No further decrease in body temperature
same,"Minimal Effective Dose (MED), hypothermic effect",[3]; i.v. bolus,about 0.1 mg/kg eq. NT
same,"ED50, hypothermic effect","[3]; i.v. bolus, dose-response",1.53 mg/kg eq. NT
same,transfer coefficient Kin in the brain,[4],0.000365 mL/s/g
same,transfer coefficient Kin in the eye,[5],0.00033 mL/s/g
same,half-life,[6],96 min
same,"maximal decrease in body temperature, day 1","[7]; day 1, 45 min post-injection",−5.5 °C
same,"mean decrease in body temperature, day 2 to day 4","[7]; day 2 to day 4, 30 min post-injection",−3 °C
